# Experimental data: ChEMBL document CHEMBL4680210, “Discovery of 1,6-naphthyridinone-based MET kinase inhibitor bearing quinoline moiety as promising antitumor drug candidate” (Eur J Med Chem, 2020)
# Legend:
# [1] = tested on: MKN-45; experiment: cells; conditions: Homo sapiens, MKN-45, 72 h
# [2] = tested on: HT-29; experiment: cells; conditions: Homo sapiens, HT-29, 72 h
# [3] = tested on: NCI-H460; experiment: cells; conditions: Homo sapiens, NCI-H460, 72 h
# [4] = biological target: Hepatocyte growth factor receptor (Homo sapiens, UniProt P08581)
# [5] = cells; conditions: Homo sapiens, U-87 MG, 72 h
# [6] = Half life in rat liver microsomes; assay type: ADME, Microsome
# [7] = biological target: T1, Tyrosine-protein kinase receptor UFO (Homo sapiens, UniProt P30530); experiment: Inhibition of AXL (unknown origin) using biotin as substrate preincubated for 5 mins followed by substrate addition and measured after 30 to 60 mins by HTRF assay
# T1 sequence (P30530 whole entry): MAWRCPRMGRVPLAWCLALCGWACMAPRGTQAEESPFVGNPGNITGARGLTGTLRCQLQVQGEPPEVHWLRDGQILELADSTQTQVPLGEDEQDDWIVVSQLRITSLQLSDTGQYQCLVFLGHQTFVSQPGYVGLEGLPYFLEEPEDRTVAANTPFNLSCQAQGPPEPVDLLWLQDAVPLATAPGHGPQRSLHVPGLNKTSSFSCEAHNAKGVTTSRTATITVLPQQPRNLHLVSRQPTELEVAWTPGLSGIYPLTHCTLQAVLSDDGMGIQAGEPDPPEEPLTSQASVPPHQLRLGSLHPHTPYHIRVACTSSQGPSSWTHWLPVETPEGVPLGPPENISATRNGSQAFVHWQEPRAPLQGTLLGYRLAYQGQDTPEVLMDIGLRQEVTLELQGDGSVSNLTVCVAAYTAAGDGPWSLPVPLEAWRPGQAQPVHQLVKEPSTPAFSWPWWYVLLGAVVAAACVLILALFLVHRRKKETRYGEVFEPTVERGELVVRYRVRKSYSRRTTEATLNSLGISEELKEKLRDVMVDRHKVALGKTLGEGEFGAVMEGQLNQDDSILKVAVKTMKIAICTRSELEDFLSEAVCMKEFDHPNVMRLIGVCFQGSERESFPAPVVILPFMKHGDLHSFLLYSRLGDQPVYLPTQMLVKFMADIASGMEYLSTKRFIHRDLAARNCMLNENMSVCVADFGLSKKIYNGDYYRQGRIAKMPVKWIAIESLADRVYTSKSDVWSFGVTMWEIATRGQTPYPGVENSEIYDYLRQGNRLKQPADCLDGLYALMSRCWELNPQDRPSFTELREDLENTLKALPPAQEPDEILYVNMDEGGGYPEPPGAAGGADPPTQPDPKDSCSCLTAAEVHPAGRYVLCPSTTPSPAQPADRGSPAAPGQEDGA
# [8] = Cmax in Sprague-Dawley rat at 1 mg/kg, iv up to 24 hrs by LC-MS/MS analysis; assay type: ADME, organism-based; parameters: route intravenous, dose 1 mg/kg, time <=24; conditions: in vivo
# [9] = biological target: Vascular endothelial growth factor receptor 3 (Homo sapiens, UniProt P35916); experiment: Inhibition of FLT4 (unknown origin) using biotin as substrate preincubated for 5 mins followed by substrate addition and measured after 30 to 60 mins by HTRF assay
# [10] = Antitumour activity against human U87MG cells xenografted in athymic nude mouse assessed as tumour growth inhibition at 6 mg/kg, po for 21 days relative to control; assay type: functional, U87; conditions: U-87 MG, 504 h, time 21 day, read-out: TGI
# [11] = Clearance in Sprague-Dawley rat at 1 mg/kg, iv up to 24 hrs by LC-MS/MS analysis; assay type: ADME, organism-based; conditions: in vivo
# [12] = Antitumour activity against human U87MG cells xenografted in athymic nude mouse assessed as tumour growth inhibition at 37.5 mg/kg, po for 21 days relative to control; assay type: functional, U87; conditions: U-87 MG, 504 h, time 21 day, read-out: TGI
# [13] = animal or person; conditions: Homo sapiens, U-87 MG, po, 504 h, read-out: TGI
# [14] = Apparent volume of distribution in Sprague-Dawley rat at 5 mg/kg, po up to 24 hrs by LC-MS/MS analysis; assay type: ADME, organism-based; conditions: in vivo
# [15] = Oral bioavailability in Sprague-Dawley rat at 5 mg/kg up to 24 hrs by LC-MS/MS analysis; assay type: ADME, organism-based; conditions: in vivo
# [16] = AUC (0 to infinity) in Sprague-Dawley rat at 1 mg/kg, iv up to 24 hrs by LC-MS/MS analysis; assay type: ADME, organism-based; parameters: route intravenous, dose 1 mg/kg, time <=24; conditions: in vivo
# [17] = Half life in Sprague-Dawley rat at 1 mg/kg, iv up to 24 hrs by LC-MS/MS analysis; assay type: ADME, organism-based; conditions: in vivo
# [18] = Clearance in Sprague-Dawley rat at 5 mg/kg, po up to 24 hrs by LC-MS/MS analysis; assay type: ADME, organism-based; conditions: in vivo
# [19] = tested on: U87; experiment: Antitumour activity against human U87MG cells xenografted in po dosed athymic nude mouse assessed as tumour growth inhibition for 21 days; assay type: functional, organism-based; conditions: dose 3-37.5 mg/kg, time 21.0 day
# [20] = biological target: Angiopoietin-1 receptor (Homo sapiens, UniProt Q02763); experiment: Inhibition of TEK (unknown origin) using biotin as substrate preincubated for 5 mins followed by substrate addition and measured after 30 to 60 mins by HTRF assay
# [21] = Tmax in Sprague-Dawley rat at 5 mg/kg, po up to 24 hrs by LC-MS/MS analysis; assay type: ADME, organism-based; conditions: in vivo
# [22] = Cmax in Sprague-Dawley rat at 5 mg/kg, po up to 24 hrs by LC-MS/MS analysis; assay type: ADME, organism-based; parameters: route oral, dose 5 mg/kg, time <=24; conditions: in vivo
# [23] = AUC (0 to infinity) in Sprague-Dawley rat at 5 mg/kg, po up to 24 hrs by LC-MS/MS analysis; assay type: ADME, organism-based; parameters: route oral, dose 5 mg/kg, time <=24; conditions: in vivo
# [24] = Apparent volume of distribution in Sprague-Dawley rat at 1 mg/kg, iv up to 24 hrs by LC-MS/MS analysis; assay type: ADME, organism-based; conditions: in vivo, read-out: Vz
# [25] = Antitumour activity against human U87MG cells xenografted in athymic nude mouse assessed as tumour growth inhibition at 3 mg/kg, po for 21 days relative to control; assay type: functional, U87; conditions: U-87 MG, 504 h, time 21 day, read-out: TGI
# [26] = Half life in Sprague-Dawley rat at 5 mg/kg, po up to 24 hrs by LC-MS/MS analysis; assay type: ADME, organism-based; conditions: in vivo
# Chain of Hepatocyte growth factor receptor (P08581 whole entry): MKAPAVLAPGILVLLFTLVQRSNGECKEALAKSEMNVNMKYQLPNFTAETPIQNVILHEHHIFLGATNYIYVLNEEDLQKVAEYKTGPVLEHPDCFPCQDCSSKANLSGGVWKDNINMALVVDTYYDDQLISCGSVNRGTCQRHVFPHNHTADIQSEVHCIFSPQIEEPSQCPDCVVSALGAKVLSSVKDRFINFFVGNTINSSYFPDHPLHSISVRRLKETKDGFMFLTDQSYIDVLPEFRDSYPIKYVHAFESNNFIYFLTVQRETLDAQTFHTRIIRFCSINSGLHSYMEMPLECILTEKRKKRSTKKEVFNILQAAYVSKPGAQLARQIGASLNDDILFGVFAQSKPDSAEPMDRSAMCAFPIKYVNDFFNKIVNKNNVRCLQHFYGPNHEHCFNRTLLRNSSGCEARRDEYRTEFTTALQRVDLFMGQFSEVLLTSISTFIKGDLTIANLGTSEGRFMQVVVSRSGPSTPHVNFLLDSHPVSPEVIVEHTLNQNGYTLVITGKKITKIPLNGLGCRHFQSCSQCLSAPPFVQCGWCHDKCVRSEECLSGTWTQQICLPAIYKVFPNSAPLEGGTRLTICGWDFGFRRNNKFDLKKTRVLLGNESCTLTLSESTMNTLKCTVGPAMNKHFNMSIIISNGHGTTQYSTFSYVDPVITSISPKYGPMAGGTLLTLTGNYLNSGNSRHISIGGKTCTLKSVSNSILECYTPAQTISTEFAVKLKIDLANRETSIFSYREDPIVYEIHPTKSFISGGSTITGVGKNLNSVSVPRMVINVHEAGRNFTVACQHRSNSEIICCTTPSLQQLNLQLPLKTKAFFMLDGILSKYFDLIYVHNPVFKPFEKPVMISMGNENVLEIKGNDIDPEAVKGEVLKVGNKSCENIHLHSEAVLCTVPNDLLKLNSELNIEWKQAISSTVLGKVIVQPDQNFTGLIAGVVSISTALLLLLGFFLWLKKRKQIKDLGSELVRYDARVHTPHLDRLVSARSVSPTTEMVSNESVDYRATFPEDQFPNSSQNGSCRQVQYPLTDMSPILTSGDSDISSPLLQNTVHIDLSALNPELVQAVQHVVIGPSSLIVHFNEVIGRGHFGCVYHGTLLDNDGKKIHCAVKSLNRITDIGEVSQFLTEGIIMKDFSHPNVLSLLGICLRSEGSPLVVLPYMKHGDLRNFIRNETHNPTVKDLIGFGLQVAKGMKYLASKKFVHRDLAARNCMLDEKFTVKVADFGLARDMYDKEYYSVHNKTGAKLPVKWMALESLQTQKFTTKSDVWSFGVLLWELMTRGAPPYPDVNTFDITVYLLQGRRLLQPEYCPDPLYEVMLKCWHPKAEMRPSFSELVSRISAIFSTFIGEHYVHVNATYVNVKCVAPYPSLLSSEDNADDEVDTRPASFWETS
# Chain of Angiopoietin-1 receptor (Q02763 whole entry): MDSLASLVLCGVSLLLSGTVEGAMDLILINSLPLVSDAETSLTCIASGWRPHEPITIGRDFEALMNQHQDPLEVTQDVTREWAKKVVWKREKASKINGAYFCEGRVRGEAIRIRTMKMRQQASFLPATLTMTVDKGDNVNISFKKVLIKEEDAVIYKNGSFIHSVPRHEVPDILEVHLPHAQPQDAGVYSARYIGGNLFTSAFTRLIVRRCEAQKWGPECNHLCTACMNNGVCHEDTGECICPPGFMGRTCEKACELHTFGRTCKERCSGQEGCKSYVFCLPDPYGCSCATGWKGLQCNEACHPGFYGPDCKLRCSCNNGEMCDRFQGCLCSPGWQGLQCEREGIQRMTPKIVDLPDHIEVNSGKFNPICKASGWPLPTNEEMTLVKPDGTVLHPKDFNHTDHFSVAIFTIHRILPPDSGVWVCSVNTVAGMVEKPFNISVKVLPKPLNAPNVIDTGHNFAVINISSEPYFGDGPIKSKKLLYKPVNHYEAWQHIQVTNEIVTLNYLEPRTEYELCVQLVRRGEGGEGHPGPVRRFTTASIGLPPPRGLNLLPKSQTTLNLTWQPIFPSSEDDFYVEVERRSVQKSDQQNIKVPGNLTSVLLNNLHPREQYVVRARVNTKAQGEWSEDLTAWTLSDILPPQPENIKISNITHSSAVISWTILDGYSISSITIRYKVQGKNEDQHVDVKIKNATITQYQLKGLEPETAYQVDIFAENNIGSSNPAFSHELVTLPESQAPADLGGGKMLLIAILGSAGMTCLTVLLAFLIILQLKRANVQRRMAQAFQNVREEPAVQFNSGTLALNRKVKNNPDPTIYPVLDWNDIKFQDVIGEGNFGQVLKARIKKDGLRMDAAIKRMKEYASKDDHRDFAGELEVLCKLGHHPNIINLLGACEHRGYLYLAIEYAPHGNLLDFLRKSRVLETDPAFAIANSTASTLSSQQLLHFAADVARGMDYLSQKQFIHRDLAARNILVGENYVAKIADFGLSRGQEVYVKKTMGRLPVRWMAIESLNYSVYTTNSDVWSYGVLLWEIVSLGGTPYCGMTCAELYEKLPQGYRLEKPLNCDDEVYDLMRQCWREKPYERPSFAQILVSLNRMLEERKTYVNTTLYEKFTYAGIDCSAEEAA
# Chain of Vascular endothelial growth factor receptor 3 (P35916 whole entry): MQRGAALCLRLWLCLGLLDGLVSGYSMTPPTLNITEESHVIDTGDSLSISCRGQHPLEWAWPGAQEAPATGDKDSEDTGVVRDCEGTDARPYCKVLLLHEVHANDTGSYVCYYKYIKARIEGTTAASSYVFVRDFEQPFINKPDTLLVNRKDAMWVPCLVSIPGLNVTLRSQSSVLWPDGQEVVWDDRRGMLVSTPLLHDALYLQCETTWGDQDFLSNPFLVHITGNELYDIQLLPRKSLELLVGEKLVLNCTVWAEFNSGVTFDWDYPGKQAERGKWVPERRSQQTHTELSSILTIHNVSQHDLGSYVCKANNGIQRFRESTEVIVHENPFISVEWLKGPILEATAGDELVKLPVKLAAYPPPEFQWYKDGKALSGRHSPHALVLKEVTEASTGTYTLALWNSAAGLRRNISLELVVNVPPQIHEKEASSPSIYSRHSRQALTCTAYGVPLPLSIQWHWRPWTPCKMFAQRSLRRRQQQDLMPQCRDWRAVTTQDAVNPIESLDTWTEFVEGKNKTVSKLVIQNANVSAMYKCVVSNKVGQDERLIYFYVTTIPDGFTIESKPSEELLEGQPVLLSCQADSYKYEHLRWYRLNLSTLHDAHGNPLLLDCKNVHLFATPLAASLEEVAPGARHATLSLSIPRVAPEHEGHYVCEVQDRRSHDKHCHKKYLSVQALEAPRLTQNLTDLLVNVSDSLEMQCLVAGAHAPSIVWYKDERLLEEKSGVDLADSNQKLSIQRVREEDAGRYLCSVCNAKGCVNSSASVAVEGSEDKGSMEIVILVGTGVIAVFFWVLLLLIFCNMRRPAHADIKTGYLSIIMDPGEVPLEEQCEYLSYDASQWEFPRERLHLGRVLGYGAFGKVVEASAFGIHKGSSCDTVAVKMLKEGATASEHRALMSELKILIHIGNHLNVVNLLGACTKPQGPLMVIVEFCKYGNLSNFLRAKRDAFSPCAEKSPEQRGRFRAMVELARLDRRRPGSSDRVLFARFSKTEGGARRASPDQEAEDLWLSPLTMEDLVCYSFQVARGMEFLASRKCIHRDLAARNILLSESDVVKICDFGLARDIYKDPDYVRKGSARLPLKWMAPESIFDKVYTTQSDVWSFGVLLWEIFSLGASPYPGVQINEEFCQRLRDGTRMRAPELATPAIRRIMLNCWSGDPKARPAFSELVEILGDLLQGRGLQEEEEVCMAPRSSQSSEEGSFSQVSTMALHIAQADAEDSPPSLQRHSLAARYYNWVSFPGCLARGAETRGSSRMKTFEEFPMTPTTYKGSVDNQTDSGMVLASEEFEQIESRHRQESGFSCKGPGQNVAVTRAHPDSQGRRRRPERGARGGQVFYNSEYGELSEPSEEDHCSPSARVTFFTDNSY
Structure (SMILES),IC50 [1] [µM],IC50 [2] [µM],IC50 [3] [µM],IC50 [4] [µM],IC50 [5] [µM],half-life [6] [h],further results
COCCOc1cc2nccc(Oc3ccc(Nc4nccc5[nH]cc(-c6ccc(F)cc6)c(=O)c45)cc3F)c2cc1OC,3.1,4.6,3,0.083,5.2,1.06,–
Cc1[nH]c2ccnc(Nc3ccc(Oc4ccnc5cc(OCC(C)(C)O)ccc45)c(F)c3)c2c(=O)c1-c1ccccc1,–,–,–,0.0403,–,–,–
COc1cc2c(Oc3ccc(Nc4nccc5[nH]cc(-c6ccc(F)cc6)c(=O)c45)cc3F)ccnc2cc1OCCO,1.6,2.9,2,0.0057,4.1,1.48,–
O=c1c(-c2ccc(F)cc2)c[nH]c2ccnc(Nc3ccc(Oc4ccnc5cc(OCCN6CCOCC6)ccc45)c(F)c3)c12,–,–,–,–,–,0.11,–
COc1cc2c(Oc3ccc(Nc4nccc5[nH]cc(-c6ccc(F)cc6)c(=O)c45)cc3F)ccnc2cc1OCC(C)(C)O,1.4,2.1,1.7,–,2.6,5.17,–
O=c1c(-c2ccccc2)c[nH]c2ccnc(Nc3ccc(Oc4ccnc5cc(OCCCN6CCOCC6)ccc45)c(F)c3)c12,–,–,–,–,–,0.297,–
COCCOc1cc2nccc(Oc3ccc(Nc4nccc5[nH]cc(-c6ccccc6)c(=O)c45)cc3F)c2cc1OC,–,–,–,0.0077,–,–,–
COc1cc2nccc(Oc3ccc(Nc4nccc5[nH]cc(-c6ccc(F)cc6)c(=O)c45)cc3F)c2cc1OC,–,–,–,0.0766,–,–,–
CC(C)(O)COc1ccc2c(Oc3ccc(Nc4nccc5[nH]cc(-c6ccccc6)c(=O)c45)cc3F)ccnc2c1,2.9,4.2,3.6,–,4.5,5.37,IC50 [7]: 0.0323 µM; Cmax [8]: 500 ng/mL; IC50 [9]: 0.116 µM; inhibition in vivo at 6 mg/kg [10]: 57%; clearance [11]: 3.33 mL/min/kg; inhibition in vivo at 37.5 mg/kg [12]: 172%; inhibition in vivo at 12.5 mg/kg [13]: 131%; Vz [14]: 3.3 L/kg; bioavailability [15]: 32%; AUC(0-inf) [16]: 6600 ng·h/mL; half-life [17]: 4 h; CL/F [18]: 8.33 mL/min/kg; TGI [19]: Dose-dependent effect; IC50 [20]: 0.019 µM; Tmax [21]: 4 h; Cmax [22]: 1500 ng/mL; AUC(0-inf) [23]: 10700 ng·h/mL; Vd [24]: 0.9 L/kg; inhibition in vivo at 3 mg/kg [25]: 47%; half-life [26]: 4.9 h
COc1cc2c(Oc3ccc(Nc4nccc5[nH]cc(-c6ccc(F)cc6)c(=O)c45)cc3F)ccnc2cc1OCC(C)(C)OC,–,–,–,0.0121,–,–,–

# Second part, led by results:
IC50 [1] [µM],IC50 [2] [µM],IC50 [3] [µM],IC50 [4] [µM],IC50 [5] [µM],half-life [6] [h],Structure (SMILES),further results
5.5,4.8,4.4,0.0131,16.4,1.45,COC(C)(C)COc1ccc2c(Oc3ccc(Nc4nccc5[nH]cc(-c6ccc(F)cc6)c(=O)c45)cc3F)ccnc2c1,–
2.7,3.4,3.2,–,4.7,4.14,CC(C)(O)COc1ccc2c(Oc3ccc(Nc4nccc5[nH]cc(-c6ccc(F)cc6)c(=O)c45)cc3F)ccnc2c1,–
4.7,5.5,3.5,–,4.9,1.51,O=c1c(-c2ccc(F)cc2)c[nH]c2ccnc(Nc3ccc(Oc4ccnc5cc(OCCO)ccc45)c(F)c3)c12,–
5.6,6.5,4.3,0.0084,5.1,1.73,COCCOc1ccc2c(Oc3ccc(Nc4nccc5[nH]cc(-c6ccc(F)cc6)c(=O)c45)cc3F)ccnc2c1,–
5,5.9,43,0.005,7.2,0.893,O=c1c(-c2ccc(F)cc2)c[nH]c2ccnc(Nc3ccc(Oc4ccnc5cc(O)ccc45)c(F)c3)c12,–
–,–,–,0.0278,–,1.5,CC(C)COc1ccc2c(Oc3ccc(Nc4nccc5[nH]cc(-c6ccc(F)cc6)c(=O)c45)cc3F)ccnc2c1,–
3.1,3.9,3.4,0.133,8.5,1.42,CC(O)COc1ccc2c(Oc3ccc(Nc4nccc5[nH]cc(-c6ccc(F)cc6)c(=O)c45)cc3F)ccnc2c1 (stereo not given),–
–,–,–,0.0197,–,–,COc1cc2c(Oc3ccc(Nc4nccc5[nH]cc(-c6ccc(F)cc6)c(=O)c45)cc3F)ccnc2cc1OCC(C)C,–
